In article PMC10597491 (PLOS ONE, 2023):
Bridge positions count the residues as written; N and C are the ends. Ends that are not written are not given here.

How the values were obtained:
cynomolgus IL-7Rα = target: T1, cynomolgus IL-7Rα (Macaca fascicularis, UniProt Q38IC7); experiment: Competition binding ELISA, cynomolgus IL-7Rα ECD; details: immobilized cynomolgus IL-7Rα-His6 ECD; biotinylated peptide/NA-HRP tracer; read-out: Competition ELISA IC50, IL-7Rα Cyno
T1 construct: cynomolgus IL-7Rα(aa 21–235)-His6, Sino Biological Cat# 90332-C08H; His6 (C); purchased Sino Biological 90332-C08H
T1 sequence (Q38IC7 21-235): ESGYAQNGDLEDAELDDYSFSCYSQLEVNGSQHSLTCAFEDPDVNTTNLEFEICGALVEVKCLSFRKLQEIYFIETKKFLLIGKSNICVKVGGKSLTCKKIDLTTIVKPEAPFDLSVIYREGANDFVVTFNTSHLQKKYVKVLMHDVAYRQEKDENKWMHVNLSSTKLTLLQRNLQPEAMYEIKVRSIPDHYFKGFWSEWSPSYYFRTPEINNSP
Excerpt: (§1) (A, B) Determination of IC50 values in a competition ELISA for compound binding to human and cyno IL-7Rα and γc. The assay format is IL-7Rα-(His)6-tagged ECD or Fc-γc ECD immobilized on 96-well plates. Tracers are C-terminal biotinylated forms of the reference IL-7Rα and γc peptide ligands, each pre-complexed with Neutravidin-HRP (NA-HRP). (C, D) Label-free measurement of the equilibrium dissociation constant (KD) for peptide binding to IL-7Rα and γc extracellular domains with peptides was performed by biolayer interferometry as detailed in methods. Red lines depict 1:1 binding fit from Gator™ software. Blue lines represent individual BLI sensogram data taken every 0.1 seconds.
(§2) Binding was determined using a competition binding ELISA. Microtiter plates (Immulon 4HBX flat bottom 96-well) were coated with 50 μL of […] human ECDs: IL-7Rα(aa 21–236)-His6, Sino Biological Cat# 10975-H08H; cynomolgus IL-7Rα(aa 21–235)-His6, Sino Biological Cat# 90332-C08H; human IL-2Rα(aa 23–254)-Fc, Acro Cat# ILG-H5256; cynomolgus IL-2Rα(aa 23–254)-Fc, made in-house, in PBS overnight at 4°C. […] Plates were washed with cold wash buffer, and bound tracer was detected using TMB One Component HRP substrate and Stop Solution (Surmodics Cat# TMBW-1000-01 and LSTP-0100-01). Absorbance at 450 nm was read using Agilent BioTek Synergy HTX Multimode Reader.

human γc ECD = target: T2, human γc ECD (Homo sapiens, UniProt P31785); experiment: Competition binding ELISA, human γc ECD; details: immobilized Fc-γc ECD; tracer biotinylated MDK1188 pre-complexed with Neutravidin-HRP; 4°C
T2 construct: human IL-2Rα(aa 23–254)-Fc, Acro Cat# ILG-H5256; purchased Acro ILG-H5256
T2 sequence (P31785 23-254): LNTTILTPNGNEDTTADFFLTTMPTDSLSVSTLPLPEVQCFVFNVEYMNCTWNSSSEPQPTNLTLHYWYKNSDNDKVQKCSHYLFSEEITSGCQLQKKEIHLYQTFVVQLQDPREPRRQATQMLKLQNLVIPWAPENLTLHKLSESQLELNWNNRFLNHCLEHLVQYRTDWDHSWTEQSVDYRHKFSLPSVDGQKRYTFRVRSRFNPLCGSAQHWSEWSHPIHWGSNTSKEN
Excerpt: as §1, §2

[1] = Plasma stability in vitro, human plasma; type: in vitro ADME; design: dose or concentration left out as unconfirmed; details: 37°C, incubated in duplicate, intact peptide by LC/MS/MS, read-out: t1/2 in human plasma (converted)
Excerpt: Affinity maturation of these initial families produced ligands with improved affinities; and combinations of these ligands (one each for IL-7Rα and γc) were joined into heterodimers in a variety of orientations (i.e., joined by N-termini, C-termini, or N-to-C termini), with several connection chemistries, for testing as IL-7R agonists in cell-based assays. The lead peptide agonist for detailed characterization, as described here, is a fusion of peptides MDK1248 and MDK1188, joined with a short intervening linker to form the single-chain peptide MDK1472. The peptides were analyzed for sequence similarity to IL-7, and none was found.
Supplementary file pone.0286834.s001.pptx: S1 Fig Plasma stability of MDK 1472 in vitro. […] MDK1472 or control peptide YGGFL incubated in duplicate in human or cynomolgus plasma at 37°C. At indicated time points, compounds were isolated from the plasma and the quantity of intact peptides measured by LC/MS/MS (Study performed by Quintara Discovery, Hayward, CA). (PPTX) Click here for additional data file.

[2] = tested on: rested human CD8+ T-cells; details: IL-7-treated CD8+ cells, over 6 hours at 37°C; cited from earlier work
Excerpt: Internalization of the ternary signaling complex also depletes the local ...

| Substance | IC50 (cynomolgus IL-7Rα) | IC50 (human γc ECD) | half-life [1] | disappearance of surface IL-7Rα [2] |
| --- | --- | --- | --- | --- |
| Ac-GWGIPWCTLDPGSLQCAWLGKHGGGGSGGVVCQDWEGVELCWQGG (disulfide 7-16, 32-41) [MDK1472] | 190 nM | 57 nM | 60 h |  |
| IL-7: human IL-7 cytokine (Peprotech) |  |  |  | ~ 80% |
